Experimental findings from US5824771A, “Cyclic CRF agonists” (The Salk Institute for Biological Studies, priority 1997, dated 1998) are described below.

Bridge positions count the residues as written; N and C are the ends. Square brackets hold non-standard residues; d marks the D form. Ends that are not written are not given here. Peptide text beside a SMILES is read from it. Nle = CCCC[C@H](N)C(=O)O

The nature of experiment [1]: Lowering of blood pressure on peripheral or iv administration. Type of experiment: in vivo. The note with it: peripheral administration.
The test system of experiment [2] is rat anterior pituitary cells. In words: In vitro stimulation of ACTH and β-endorphin secretion by cultured rat pituitary cells, potency compared with oCRF (Standard) or r/hCRF. Type of experiment: cell-based. The note with it: for stimulation of secretion of ACTH and β-END-LI (testing by the general procedure), in words: general procedure of Example 1. How it is done: (§1) The cyclic CRF agonists are examined for their effects on the secretion of ACTH and β-endorphin in vitro and also in vivo. […] In vivo testing is carried out using the general procedure set forth in C. Rivier et al., Science, 218, 377 (1982).

Experiment [3] relates to ACTH and β-END-LI secretion. Put plainly: Secretion of ACTH and β-END-LI on administration of the peptide (in vivo testing). How it is done:
as §1

`CCCC[C@H](NC(=O)[C@H](CCCCN)NC(=O)[C@H](C)NC(=O)[C@H](CCCNC(=N)N)NC(=O)[C@H](Cc1c[nH]cn1)NC(=O)[C@@H](NC(=O)[C@H](CCCC)NC(=O)[C@H](CC(N)=O)NC(=O)[C@H](CCCNC(=N)N)NC(=O)[C@H](CC(C)C)NC(=O)[C@H](CCCC)NC(=O)[C@H](Cc1c[nH]cn1)NC(=O)[C@@H](Cc1ccccc1)NC(=O)[C@@H](NC(=O)[C@H](CC(C)C)NC(=O)[C@H](CC(=O)O)NC(=O)[C@@H](NC(=O)[C@H](CO)NC(C)=O)[C@@H](C)CC)[C@@H](C)O)[C@@H](C)CC)C(=O)N[C@@H](CCC(=O)O)C(=O)NCC(=O)N[C@@H](CCC(=O)O)C(=O)N[C@@H](CCCNC(=N)N)C(=O)N[C@@H](CCC(=O)O)C(=O)N[C@H]1CCC(=O)NCCCC[C@@H](C(=O)N[C@@H](CC(N)=O)C(=O)N[C@@H](CCCNC(=N)N)C(=O)N[C@@H](CC(N)=O)C(=O)N[C@@H](CC(C)C)C(=O)N[C@@H](CC(C)C)C(=O)N[C@@H](CC(=O)O)C(=O)N[C@@H](CCC(=O)O)C(=O)N[C@H](C(N)=O)C(C)C)NC(=O)[C@@H](CCC(N)=O)NC(=O)[C@H](C)NC1=O` [Example 16 H, (cyclo 30-33)[Ac-Ser^7, D-Phe^12, Nle^14,18,24, Glu^30, D-Gln^32, Lys^33]-flounder urotensin(7-41)] (Ac-SIDLT[dF]H[Nle]LRN[Nle]IHRAK[Nle]EGEREEA[dQ]KNRNLLDEV-NH2; lactam 24-27): in experiment [1], the “lowering of blood pressure when administered peripherally, in words” value (from here on “lowering of blood pressure”) is listed as “very significant lowering of blood pressure”. Moreover, the “stimulation of secretion of ACTH and β-END-LI (testing by the general procedure), in words” value in experiment [2] is “stimulate the secretion of ACTH and β-END-LI”.

For “(cyclo 29-32)[D-Leu^11, Nle^17, Glu^29, Lys^32 ]-sauvagine [Example 3 C]”, the “lowering of blood pressure” value in experiment [1] is “very significant lowering of blood pressure”. In addition, the “stimulation of secretion of ACTH and β-END-LI (testing by the general procedure), in words” value in experiment [2] is “stimulates the secretion of ACTH and β-END-LI”. For the same compound, the “in vitro potency to stimulate secretion of ACTH relative to the Standard” value in experiment [2] (relative to the laboratory Standard (synthetic oCRF), cultured rat pituitary cells, limits in parentheses) was “about 5.73 (2.61-13.51) times”.

For “(cyclo 30-33)[Ac-D/L-Agl^7, D-Phe^12, Nle^21,38, Glu^30, Lys^33 ]-r/hCRF(7-41) [Example 19]”, the “stimulation of secretion of ACTH and β-END-LI on administration of the peptide, in words” value in experiment [3] was “stimulates the secretion of ACTH and β-END-LI”.

For the compound “(cyclo 30-33)[Ac-Pro^4, D-Phe^12, Nle^21,38, Glu^30, D-His^32, Lys^33 ]-oCRF(4-41) [Example 3]”, the “lowering of blood pressure” value in experiment [1] is listed as “very significant lowering of blood pressure”. For the same compound, the “stimulation of secretion of ACTH and β-END-LI (testing by the general procedure), in words” value in experiment [2] is “highly stimulates the secretion of ACTH and β-END-LI”.

On to “SEDPP[Nle]SIDLT[dF]H[Nle]LRN[Nle]IHRAK[Nle]EGEREEA[dQ]KNRNLLDEV-NH2 (lactam 30-33) [Example 3 H, (cyclo 30-33)[Nle^6,14,18,24, D-Phe^12, Glu^30, D-Gln^32, Lys^33]-flounder urotensin]”, for which, in experiment [1], the “lowering of blood pressure” value is on record as “very significant lowering of blood pressure”. Besides, in experiment [2], the “stimulation of secretion of ACTH and β-END-LI (testing by the general procedure), in words” value is “stimulates the secretion of ACTH and β-END-LI”.

Take “SEEPP[Nle]SIDLT[dF]H[Nle]LRN[Nle]IHRAK[Nle]EGEREEA[dL]KNRNLLDEV-NH2 (lactam 30-33) [Example 3 E, (cyclo 30-33)[Nle^6,14,18,24, D-Phe^12, Glu^30, D-Leu^32, Lys^33]-maggy urotensin]”: the “lowering of blood pressure” value in experiment [1] is given as “very significant lowering of blood pressure”. Moreover, the “stimulation of secretion of ACTH and β-END-LI (testing by the general procedure), in words” value in experiment [2] is “stimulates the secretion of ACTH and β-END-LI”.

As for “SEEPP[Nle]SIDLT[dF]H[Nle]LRN[Nle]IHRAK[Nle]EGEREEA[dL]KNRNL[Nle]DEV-NH2 (lactam 30-33) [Example 3 G, (cyclo 30-33)[Nle^6,14,18,24,381 D-Phe^12 Glu^301 D-Leu^32, Lys^33]-sole urotensin]”, in experiment [1], the “lowering of blood pressure” value is listed as “very significant lowering of blood pressure”. In addition, the “stimulation of secretion of ACTH and β-END-LI (testing by the general procedure), in words” value in experiment [2] was “stimulates the secretion of ACTH and β-END-LI”.
